Here are results for two compounds from US6794356B2, “Fabric softening composition comprising a malodor controlling agent” (The Procter & Gamble Company, priority 2000, dated 2004).

For the series the following is noted: typical approximate values; salt added to the solution.

With `[Cl-].[Na+]` [sodium chloride], the “cloud point of 1% solution of Neodol 91-8” value is 63-66.9 °C. On to `O=S(=O)([O-])[O-].[Ca+2]` [calcium sulfate], for which the “cloud point of 1% solution of Neodol 91-8” value is recorded as “no change”.
